Assay [1] addresses T1, lectin domain of LGR1_Llp1 (lectin-like protein 1) (Lacticaseibacillus rhamnosus, UniProt T1SH75).
T1 construct: gene E6L36_12050; N-terminal L-type lectin domain (PF00139, ca. 250 residues) with 22 amino acids extension, N-His6 tag (pET28a, pCMPG10775), from E. coli BL21(DE3); full protein 680 residues; FITC-labelled for glycan array
T1 sequence (T1SH75 31-352 limits assumed): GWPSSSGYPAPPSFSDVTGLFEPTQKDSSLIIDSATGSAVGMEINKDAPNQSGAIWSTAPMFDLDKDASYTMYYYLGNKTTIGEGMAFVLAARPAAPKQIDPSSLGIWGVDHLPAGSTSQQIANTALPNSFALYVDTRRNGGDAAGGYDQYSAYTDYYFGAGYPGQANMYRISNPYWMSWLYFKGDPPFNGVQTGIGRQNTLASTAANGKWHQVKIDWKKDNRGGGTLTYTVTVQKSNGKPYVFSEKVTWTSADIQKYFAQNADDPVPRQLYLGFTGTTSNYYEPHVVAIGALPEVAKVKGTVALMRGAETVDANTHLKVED
In words: pull-down with sugar-coated Sepharose 6B beads, SDS-PAGE. The conditions noted are these: sugar immobilised on beads; 25 mM MES, 25 mM NaCl, 1% polyvinylalcohol, 4 °C, 2 h; 100 μg/ml lectin domain. It is filed as binding.

In assay [2] the target is T1, lectin domain of LGR1_Llp1 (lectin-like protein 1). In words: mammalian glycan array v5.[…] (CFG), FITC-labelled lectin domain. It is filed as binding. The conditions noted are these: glycan immobilised on NHS-activated glass slide through amino linker.

The values that follow come from publication PMC5116675, “The lectin-like protein 1 in Lactobacillus rhamnosus GR-1 mediates tissue-specific adherence to vaginal epithelium and inhibits urogenital pathogens” (Scientific Reports, 2016).

For `OC[C@H]1OC(O)[C@@H](O)[C@@H](O)[C@@H]1O` (stereo partly drawn) [D-mannose], the “pull-down with sugar-coated Sepharose 6B beads, SDS-PAGE” value in assay [1] is “The purified lectin domain of Llp1 showed the highest binding to mannan and mannose”.
Turning to `CC(=O)N[C@H]1[C@H](O[C@@H]2[C@H](O[C@]3(C(=O)O)C[C@H](O)[C@@H](NC(C)=O)[C@H]([C@H](O)[C@@H](CO)O[C@]4(C(=O)O)C[C@H](O)[C@@H](NC(C)=O)[C@H]([C@H](O)[C@H](O)CO)O4)O3)[C@@H](O)[C@H](O[C@H]3[C@H](O)[C@@H](O)[C@H](OCCN)O[C@@H]3CO)O[C@@H]2CO)O[C@H](CO)[C@H](O)[C@@H]1O[C@@H]1O[C@H](CO)[C@H](O)[C@H](O[C@]2(C(=O)O)C[C@H](O)[C@@H](NC(C)=O)[C@H]([C@H](O)[C@@H](CO)O[C@]3(C(=O)O)C[C@H](O)[C@@H](NC(C)=O)[C@H]([C@H](O)[C@H](O)CO)O3)O2)[C@H]1O` [Neu5Acα2-8Neu5Acα2-3Galβ1-3GalNAcβ1-4(Neu5Acα2-8Neu5Acα2-3)Galβ1-4Glcβ-Sp0], the “mammalian glycan array v5.2 (CFG), FITC-labelled lectin domain” value in assay [2] is “LGR1_Llp1 showed also a capacity to bind to the glycosphingolipid GQ1 receptor”.
